Data as given in ChEMBL document CHEMBL1201862, “PubChem BioAssay data set” (2004).
Where “and” joins values, the source holds several entries; their conditions need not be identical. Identical values can stand only once.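 Briefly, cells in 96-well plates were exposed to five compound concentrations for 48 h, and endpoints were estimated by linear interpolation. GI50 is the concentration that inhibits growth by half.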 Calls of active or inactive are those of the source. Rule as the data show it: active = GI50 up to about 1.1 µM and inactive = higher.

How the values were obtained:
Experiment in all cases: inhibition of tumour cell growth, NCI panel, 48 h
MOLT-4 = system: MOLT-4
SF-539 = system: SF-539
IGROV-1 = system: IGROV-1
SF-295 = system: SF-295
SK-MEL-2 = system: SK-MEL-2
HCT-116 = system: HCT-116
HOP-92 = system: HOP-92
SN12C = system: SN12C
EKVX = system: EKVX
K562 = system: K562
MDA-MB-231 = system: MDA-MB-231
M14 = system: M14
A549 = system: A549
HT-29 = system: HT-29
HL-60 = system: HL-60
NCI-H522 = system: NCI-H522
UACC-257 = system: UACC-257
OVCAR-8 = system: OVCAR-8
HCC 2998 = system: HCC 2998

Compound | GI50 (MOLT-4) | GI50 (SF-539) | GI50 (IGROV-1) | GI50 (SF-295) | GI50 (SK-MEL-2) | GI50 (HCT-116) | GI50 (HOP-92) | GI50 (SN12C) | GI50 (EKVX) | GI50 (K562) | GI50 (MDA-MB-231) | GI50 (M14) | GI50 (A549) | GI50 (HT-29) | GI50 (HL-60) | GI50 (NCI-H522) | GI50 (UACC-257) | GI50 (OVCAR-8) | GI50 (HCC 2998)
COc1ccc(/C=C2\C[C@H]3[C@@H]4CC=C5C[C@@H](O)CC[C@]5(C)[C@H]4CC[C@]3(C)\C2=N\O)cc1 | 5.89 µM (inactive) | 21.8 µM (inactive) | 38.2 µM (inactive) | 6.98 µM (inactive) | 15.6 µM (inactive) | 5.35 µM (inactive) | 25.6 µM (inactive) | 18.1 µM (inactive) | 1.41 µM (inactive) | 4.85 µM (inactive) | 35.2 µM (inactive) | 12.7 µM (inactive) | 7.98 µM (inactive) | 16.1 µM (inactive) | 3.17 µM (inactive) | 4.97 µM (inactive) | 7.21 µM (inactive) |  | 
O=C(c1ccccc1)C(c1ccccc1)C1(O)C(=O)Nc2c(Cl)ccc(Cl)c21 (stereo unspecified) | 15.9 µM (inactive) | 20.3 µM (inactive) | 20.6 µM (inactive) | 16.5 µM (inactive) | 21.2 µM (inactive) | 16.3 µM (inactive) | 19.6 µM (inactive) | 17.9 µM (inactive) | 18.2 µM (inactive) | 12.5 µM (inactive) |  | 16.8 µM (inactive) | 26.1 µM (inactive) | 19.9 µM (inactive) | 15.6 µM (inactive) | 18.5 µM (inactive) | 15.4 µM (inactive) | 19.4 µM (inactive) | 30.8 µM (inactive)
COc1cccc(-c2cc(O)c3cc(C)cnc3n2)c1 | 0.115 µM (active) | 0.0371 µM (active) | 0.469 µM (active) | 0.0405 µM (active) | 0.0293 µM (active) | 0.0323 µM (active) |  | 0.0538 µM (active) |  | 0.0381 µM (active) | 0.415 µM (active) | 0.0543 µM (active) | 0.0776 µM (active) | 0.0318 µM (active) | 0.0246 µM (active) | 0.0389 µM (active) | > 100 µM (inactive) | 0.0658 µM (active) | 1.51 µM (inactive)
CC(=O)OC1[C@H](OC(C)=O)C2=C(C)[C@@H](OC(C)=O)C[C@@]2(C(C)(C)O)[C@@H](OC(C)=O)[C@H]2[C@@]1(C)[C@@H](OC(C)=O)CC(OC(C)=O)[C@]21CO1 (stereo partly specified) | > 100 µM (inactive) | > 100 µM (inactive) |  | > 100 µM (inactive) | > 100 µM (inactive) | > 100 µM (inactive) |  | > 100 µM (inactive) | > 100 µM (inactive) | > 100 µM (inactive) |  | > 100 µM (inactive) | > 100 µM (inactive) | > 100 µM (inactive) | > 100 µM (inactive) | > 100 µM (inactive) | > 100 µM (inactive) | > 100 µM (inactive) | 
O=C1N(c2ccccc2)C2(c3ccccc3)CC3CCCC13S2 (stereo unspecified) | 24.2 µM (inactive) | > 100 µM (inactive) | 78 µM (inactive) | 86.1 µM (inactive) | 14.4 µM (inactive) | 46.6 µM (inactive) | 67.5 µM (inactive) | 96.2 µM (inactive) | 71.8 µM (inactive) | 38.7 µM (inactive) | 72.1 µM (inactive) | > 100 µM (inactive) | 53 µM (inactive) | 42.8 µM (inactive) | 26.2 µM (inactive) | 23.7 µM (inactive) | 16.7 µM (inactive) | > 100 µM (inactive) | 
OC12CC3c4ccccc4NC3C3Oc4cccc5c4C31CCN(CC1CC1)C2C5 (stereo unspecified) | 15.5 µM (inactive) | 26.5 µM (inactive) | 15.5 µM (inactive) | 30.9 µM (inactive) | 19.5 µM (inactive) | 16.8 µM (inactive) | 11.4 µM (inactive) | 17.2 µM (inactive) | 16.7 µM (inactive) | 15.5 µM (inactive) | 17.9 µM (inactive) | 17.7 µM (inactive) | 18.4 µM (inactive) | 15.5 µM (inactive) |  | 21.7 µM (inactive) | 17.8 µM (inactive) | 16.4 µM (inactive) | 
CC(=O)OCC1OC(SC2=NC(=O)CS2)C(OC(C)=O)C(OC(C)=O)C1OC(C)=O (stereo unspecified) | 57.7 µM (inactive) and 51.8 µM (inactive) | > 100 µM (inactive) | > 100 µM (inactive) | > 100 µM (inactive) |  |  |  | > 100 µM (inactive) |  | 43.5 µM (inactive) and 40 µM (inactive) | > 100 µM (inactive) | > 100 µM (inactive) | > 100 µM (inactive) | > 100 µM (inactive) | 26.7 µM (inactive) and 23.4 µM (inactive) | 47 µM (inactive) and 78.9 µM (inactive) | > 100 µM (inactive) | > 100 µM (inactive) | > 100 µM (inactive)
COC(CNC(=O)C(C)NC(=O)/C=C/c1ccccc1)OC (stereo unspecified) | > 100 µM (inactive) | > 100 µM (inactive) | > 100 µM (inactive) | > 100 µM (inactive) | > 100 µM (inactive) | > 100 µM (inactive) | > 100 µM (inactive) | > 100 µM (inactive) | > 100 µM (inactive) | > 100 µM (inactive) | > 100 µM (inactive) | > 100 µM (inactive) | > 100 µM (inactive) | > 100 µM (inactive) | > 100 µM (inactive) | 62.1 µM (inactive) | > 100 µM (inactive) | > 100 µM (inactive) | 
COC(=O)C1=CS/C(=C2\S[C@@H]3[C@H](S2)[C@H]2C=C[C@@H]3C2)S1 | 5.19 µM (inactive) | 6.19 µM (inactive) | 39.2 µM (inactive) | 2.96 µM (inactive) | 32.5 µM (inactive) | 8.09 µM (inactive) | 79.8 µM (inactive) | > 100 µM (inactive) |  | 2.74 µM (inactive) | > 100 µM (inactive) | 48.3 µM (inactive) | 30.8 µM (inactive) | 13.1 µM (inactive) | 9.82 µM (inactive) |  | 66.5 µM (inactive) | > 100 µM (inactive) | 
CC1OC(OC2C(CO)OC(O[C@H]3CC[C@@]4(C)C(=CC[C@H]5[C@@H]6C[C@@H]7O[C@](O)(CC[C@H](C)COC8OC(CO)C(O)C(O)C8O)[C@@H](C)[C@@H]7[C@@]6(C)CC[C@@H]54)C3)C(OC3OC(C)C(O)C(O)C3O)C2O)C(O)C(O)C1O (stereo partly specified) | 2.29 µM (inactive) | 2.82 µM (inactive) | 5.75 µM (inactive) | 4.41 µM (inactive) | 6.21 µM (inactive) | 3.72 µM (inactive) | 3.56 µM (inactive) | 10 µM (inactive) | 17.1 µM (inactive) | 2.8 µM (inactive) | 8.55 µM (inactive) | 3.05 µM (inactive) | 2.35 µM (inactive) | 11.9 µM (inactive) | 4.66 µM (inactive) | 2.88 µM (inactive) | 6.64 µM (inactive) | 4.06 µM (inactive) | 
Cc1cc2nc3c(C#N)c(-c4ccccc4)cc(Nc4ccc(F)cc4)n3c2cc1C | 17.6 µM (inactive) | 18.6 µM (inactive) |  | 17.6 µM (inactive) |  | 13.7 µM (inactive) | 5.01 µM (inactive) | 13.9 µM (inactive) | 14.6 µM (inactive) |  | 15.1 µM (inactive) |  |  | 28.6 µM (inactive) |  | 4.33 µM (inactive) | 7.5 µM (inactive) | 10.7 µM (inactive) | 
Nc1ccc(-c2nc3ccccc3s2)cc1F | 10.8 µM (inactive) |  | < 0.01 µM (active) | 25.8 µM (inactive) | 19.2 µM (inactive) | 15.5 µM (inactive) | 45.4 µM (inactive) | 27.7 µM (inactive) | 2.59 µM (inactive) | 35.6 µM (inactive) | 13.6 µM (inactive) | 26.8 µM (inactive) | 21.3 µM (inactive) | 29.2 µM (inactive) |  | 20.9 µM (inactive) | 39.6 µM (inactive) | > 100 µM (inactive) | 
Nc1[nH]c(=S)[nH]c(=O)c1/N=N/c1c(Br)cc(S(N)(=O)=O)cc1Br | > 100 µM (inactive) | > 100 µM (inactive) | > 100 µM (inactive) | > 100 µM (inactive) | > 100 µM (inactive) | > 100 µM (inactive) | > 100 µM (inactive) | > 100 µM (inactive) | > 100 µM (inactive) | > 100 µM (inactive) | > 100 µM (inactive) | > 100 µM (inactive) | > 100 µM (inactive) | > 100 µM (inactive) | > 100 µM (inactive) | > 100 µM (inactive) | > 100 µM (inactive) | > 100 µM (inactive) | 
O=S1(=O)c2cnccc2N=C(NCc2ccccc2)N1c1ccccc1 | 34.9 µM (inactive) | > 100 µM (inactive) | 55.1 µM (inactive) | 89.1 µM (inactive) | 83.2 µM (inactive) | 73.8 µM (inactive) | 57.5 µM (inactive) | 71.9 µM (inactive) | > 100 µM (inactive) | > 100 µM (inactive) |  | > 100 µM (inactive) | > 100 µM (inactive) | 81.1 µM (inactive) | 41.4 µM (inactive) | 42.1 µM (inactive) | > 100 µM (inactive) | 78 µM (inactive) | 67.1 µM (inactive)
Cn1cnc([N+](=O)[O-])c1Sc1nc2cccnc2[nH]1 | 29.9 µM (inactive) | > 100 µM (inactive) | 71.4 µM (inactive) | 37.7 µM (inactive) |  | 90.6 µM (inactive) | 83 µM (inactive) | 40.3 µM (inactive) | 28.5 µM (inactive) | 22.8 µM (inactive) |  | > 100 µM (inactive) | 90.2 µM (inactive) | > 100 µM (inactive) | 12.5 µM (inactive) |  | 91.2 µM (inactive) | 86.5 µM (inactive) | > 100 µM (inactive)
Cc1ccc2n(c1)cc(-c1ccc(/C=N/NC(=N)N/N=C/c3ccc(-c4cn5cc(C)ccc5[n+]4C)cc3)cc1)[n+]2C | > 100 µM (inactive) | 39.8 µM (inactive) | > 100 µM (inactive) | > 100 µM (inactive) |  | > 100 µM (inactive) |  | > 100 µM (inactive) | > 100 µM (inactive) | > 10 µM (inactive) | > 100 µM (inactive) | 33.9 µM (inactive) | > 100 µM (inactive) | > 100 µM (inactive) | > 100 µM (inactive) | > 100 µM (inactive) | 50.6 µM (inactive) | > 100 µM (inactive) | > 100 µM (inactive)
